The results in this text go back to patent publication EP3574917A1, “ANTI-CANCER AGENT, METHOD FOR SCREENING FOR ANTI-CANCER AGENT, KIT FOR DETERMINATION OF EFFICACY ON CANCER, AND METHOD FOR DETERMINING EFFICACY ON CANCER” (University of Miyazaki, priority 2017, dated 2018).

What all share (assay): cellular proliferative potential (cell counting kit-8)
What all share (format): cell-based
For orientation: Tetrazolium dyes change colour on reduction, which living cells bring about.

One assay concerns U2OS. The following applies: U2OS (NDRG2 hardly expressed), in the presence of AdOX, over time. As to the method:
(§1) In the following Examples, HTLV-1-uninfected T-cell lymphocytic acute leukemia T-ALL (Jurkat and MOLT4), an HTLV-1-infected cell line (HUT102), an ATLL cell line (KOB), an osteosarcoma cell line (U2OS), and a uterine cancer cell line (HeLa) were used as cell lines. The cell lines described above were cultured in a RPM11640 or DMEM culture solution, to which 10% fetal bovine serum (FBS) supplemented or unsupplemented with IL2 (50 U/mL) was added, under 5% carbon dioxide at 37°C.
(§2) For each established cell line, 2 ×10^3 cells were cultured on a 96-well plate, and cell counting kit-8 (manufactured by DOJINDO CO., LTD) was added at a predetermined time. The number of cells was quantified based on an absorbance of 450 nm or 490 nm, to evaluate cellular proliferative potential.
(§3) In the cell lines of a solid cancer, the influence of the decreased expression of a PRMT5 gene was also evaluated in a manner similar to the manner of Example 2. The cellular proliferative potential of the parent lines, shluc cell lines, shPRMT5-3 cell lines, and shPRMT5-4 cell lines of U2OS and HeLa, and an influence on the cellular proliferative potential of a PRMT inhibitor were evaluated.

A further assay deals with HeLa. The settings on record: HeLa (NDRG2 hardly expressed), in the presence of AdOX, over time. As to the method: as §1, §2, §3
In another assay the test system is KOB. The following applies: KOB (NDRG2 hardly expressed), AdOX added to culture medium at start of culture, over time. As to the method:
as §1, §2
(§4) In addition to HUT102 and KOB, Jurkat and MOLT4 were cultured. At the time of the start of the culture, AdOX (manufactured by Sigma-Aldrich Co. LLC) as a PRMT5 inhibitor was added to each culture medium. Like the Examples 2 described above, cellular proliferative potential was evaluated.

In another assay the test system is Jurkat. The settings on record: without the decreased expression of NDRG2, AdOX added at start of culture. As to the method:
as §1, §2, §4

A further assay has as its system MOLT4. The following applies: MOLT4, without the decreased expression of NDRG2, AdOX added at start of culture. As to the method: as §1, §2, §4
The subject of a further assay is HUT102. The settings on record: HUT102 (NDRG2 hardly expressed), AdOX added to culture medium at start of culture, over time. As to the method:
as §1, §2, §4

Consider `Nc1ncnc2c1ncn2[C@@H](C=O)O[C@@H](C=O)CO` [AdOX, adenosine-2',3'-dialdehyde], for which the “suppression of cell proliferation” value was “suppressed cell proliferation in a concentration-dependent manner” with U2OS; “suppressed cell proliferation in a concentration-dependent manner” with HeLa; “exhibited the suppression of cell proliferation in concentration-dependent manners” in the assay on KOB; “not observed” in the assay on Jurkat; “not observed” in the assay with MOLT4; “exhibited the suppression of cell proliferation in concentration-dependent manners” in the assay with HUT102.
